Assay results reported in patent US9808528B2, “Protein-polymer-drug conjugates and methods of using same” (priority 2014, dated 2017).
pIC50: −log10 of the molar value. Values joined by “and” are separate entries in the source; they are usually repeats but may differ in a detail not shown here. Identical values can stand only once.

Experiments:
HCC38 = assay: Cytotoxicity assay (CellTiter-Glo); assay type: cell-based, human; details: HER2 molecules per cell 36,000; Her2 expression 2+; 72 hours or 6 days
Protocol: (§1) ZR75-1 (human breast cancer cell line, not amplified, ATCC, Cat.# CRL-1500), was cultured in RPMI-1640 Medium. HCC1187 (human breast cancer cell line, not amplified, ATCC, Cat.# CRL-2322), was cultured in RPMI-1640 Medium. HCC38 (human breast cancer cell line, not amplified, ATCC, Cat.# CRL-2314), was cultured in RPMI-1640 Medium. T47D (human breast cancer cell line, not amplified, ATCC, Cat.# HTB-133), was cultured in RPMI-1640 Medium. MDA-MB-231 (human breast cancer cell line, not amplified, ATCC, Cat.# HTB-26), was cultured in DMEM Medium.
(§2) For the cytotoxicity assay, cells were seeded at a density of 3000 cells per well in 96 well plates and allowed to attach during overnight incubation at 37° C. in the presence of 5% CO2.

SKOV3 = assay: Cytotoxicity assay (CellTiter-Glo); assay type: cell-based, human; details: HER2 molecules per cell 220,000; Her2 expression 3+; 72 hours or 6 days
Protocol: (§3) OVCAR3 (ovarian adenocarcinoma, not amplified, ATCC, Cat# HTB-161) was cultured in RPMI medium with 20% FBS. […] MKN-45 III (human gastric adenocarcinoma cell line, not amplified, DSMZ, Braunschweig, Germany, Cat.# ACC409) was cultured in RPMI-1640 Medium, (ATCC, Cat#30-2001). SKOV3 (human ovary adenocarcinoma cell line ATCC, Cat.# HTB-77), was cultured in McCoy's 5a Medium.
as §2

TOV21G = assay: Cytotoxicity assay (CellTiter-Glo); assay type: cell-based, human; details: HER2 molecules per cell 12,000; Her2 expression 1+; 72 hours or 6 days
Protocol: as §3, §2

JIMT-1 cells = assay: Tumor growth response, JIMT-1 xenograft; assay type: in vivo, mice; details: single IV dose day 1
Protocol: Female CB-17 SCID mice were inoculated subcutaneously with BT474 tumor fragments (n=10 for each group) or JIMT-1 cells (n=10 for each group) or NCI-N87 cells (n=10 for each group). […] Test compounds or vehicle were dosed IV as a single dose on day 1. Tumor size was measured at the times indicated in FIGS. 1 to 6 using digital calipers. Tumor volume was calculated and was used to determine the delay in tumor growth. Mice were sacrificed when tumors reached a size of 800 to 1500 mm^3. Tumor volumes are reported as the mean±SEM (“standard error of mean”) for each group.

NCI-N87 = assay: Cytotoxicity assay (CellTiter-Glo); assay type: cell-based; details: HER2 molecules per cell 700,000; Her2 expression 3+; 72 hours or 6 days
Protocol: as §2

SNU5 = assay: Cytotoxicity assay (CellTiter-Glo); assay type: cell-based; details: HER2 molecules per cell 22,000; Her2 expression 1+; 72 hours or 6 days
Protocol: (§4) A549 (human lung carcinoma cell line, not amplified, ATCC, Cat# CCL-185) was cultured in F12K Medium. […] NCI-H460 (human lung carcinoma cell line, not amplified, ATCC, Cat.# HTB-177) was cultured in RPMI-1640 Medium, (ATCC, Cat.#30-2001). SHP-77 (human small cell lung cancer cell line, not amplified, ATCC, Cat.# CRL-2195) was cultured in RPMI-1640 Medium, (ATCC, Cat#30-2001).
as §2

OVCAR3 = assay: Cytotoxicity assay (CellTiter-Glo); assay type: cell-based; details: HER2 molecules per cell 7,200; Her2 expression 1+; 72 hours or 6 days
Protocol: as §3, §2

NCI-H522 = assay: Cytotoxicity assay (CellTiter-Glo); assay type: cell-based; details: HER2 molecules per cell 25,000; Her2 expression 1+; 72 hours or 6 days
Protocol: (§5) NCI-H1581 (non-small cell lung carcinoma medium expressing cell line, not amplified, ATCC, Cat.# CRL-5878) cells were cultured in DMEM:F12 medium (ATCC, Cat#30-2006). […] CALU3 (human lung adenocarcinoma cell line, ATCC, Cat# HTB-55) was cultured in ATCC-formulated Eagle's Minimum Essential Medium. […] NCI-H2122 (human lung adenocarcinoma cell line, not amplified, ATCC, Cat# CRL-5985) was cultured in RPMI-1640 Medium, (ATCC, Cat#30-2001).
as §2

MKN45 = assay: Cytotoxicity assay (CellTiter-Glo); assay type: cell-based, human; details: HER2 molecules per cell 16,000; Her2 expression 1+; 72 hours or 6 days
Protocol: as §3, §2

NCI-H2122 = assay: Cytotoxicity assay (CellTiter-Glo); assay type: cell-based, human; details: HER2 molecules per cell 12,000; Her2 expression 1+; 72 hours or 6 days
Protocol: as §5, §2

HCC1187 = assay: Cytotoxicity assay (CellTiter-Glo); assay type: cell-based, human; details: HER2 molecules per cell 38,000; Her2 expression 2+; 72 hours or 6 days
Protocol: as §1, §2

T47D = assay: Cytotoxicity assay (CellTiter-Glo); assay type: cell-based, human; details: HER2 molecules per cell 20,000; Her2 expression 1+; 72 hours or 6 days
Protocol: as §1, §2

A549 = assay: Cytotoxicity assay (CellTiter-Glo); assay type: cell-based, human; details: HER2 molecules per cell 6,000; Her2 expression 1+; 72 hours or 6 days
Protocol: as §4, §2

JIMT1 = assay: Cell viability assay (Cell Titer-Glo); assay type: cell-based; details: 72 h incubation; HER2 medium expression level cells; AF-HPA as toxin equivalents
Protocol: (§6) PBRM-polymer-drug conjugates were evaluated for their antiproliferation properties in tumor cell lines in vitro using Cell Titer-Glo (Promega Corp). Cells were plated in black walled 96-well plate and allowed to adhere overnight at 37° C. in a humidified atmosphere of 5% CO2. SKBR3, BT474, NCI-N87 cells (HER2 expressing cells), MCF7 cells (HER2 low expressing levels cells) and JIMT1 cells (HER2 medium expression level cells) were plated at a density of 5,000 cells per well. The next day the medium was replaced with 50 μL fresh medium and 50 μL of 2× stocks of PBRM-polymer-drug conjugate, drug polymer conjugate or drug were added to appropriate wells, mixed and incubated for 72 h. Cell Titer-Glo reagent was added to the wells at room temperature and the luminescent signal was measured after 10 min using a SpectraMax M5 plate reader (Molecular Devices). Dose response curves were generated using SoftMax Pro software. IC50 values were determined from four-parameter curve fitting.

JIMT-1 = details: read-out: IC50 JIMT-1; HER2 molecules per cell 80,000; Her2 expression 2+; 72 hours or 6 days
N87 = assay: Cell viability assay (Cell Titer-Glo); assay type: cell-based; details: 72 h incubation; AF-HPA as toxin equivalents
Protocol: as §6

SKBR3 = assay: Cell viability assay (Cell Titer-Glo); assay type: cell-based; details: 72 h incubation; AF-HPA as toxin equivalents
Protocol: as §6

CALU3 = assay: Cytotoxicity assay (CellTiter-Glo); assay type: cell-based, human; details: HER2 molecules per cell 330,000; Her2 expression 3+; 72 hours or 6 days
Protocol: as §5, §2

MDA-MB-231 = assay: Cytotoxicity assay (CellTiter-Glo); assay type: cell-based, human; details: HER2 molecules per cell 5400; Her2 expression 1+; 72 hours or 6 days
Protocol: as §1, §2

MDA-MB-361 = assay: Cytotoxicity assay (CellTiter-Glo); assay type: cell-based, human; details: HER2 molecules per cell 135,000; Her2 expression 2+; 72 hours or 6 days
Protocol: (§7) MDA-MB-175-VII (human breast cancer cell line, not amplified, ATCC, Cat.# HTB-25), was cultured in Leibovitz's L-15 Medium with 20% FBS. CAMA-1 (human breast cancer cell line, not amplified, ATCC, Cat.# HTB-21), was cultured in 90% ATCC-formulated Eagle's Minimum Essential Medium.
as §2

SHP-77 = assay: Cytotoxicity assay (CellTiter-Glo); assay type: cell-based, human; details: HER2 molecules per cell 0; 72 hours or 6 days
Protocol: as §4, §2

MCF7 = assay: Cell viability assay (Cell Titer-Glo); assay type: cell-based; details: 72 h incubation; HER2 low expressing cells; AF-HPA as toxin equivalents
Protocol: as §6

hErbB2 = hErbB2 (Homo sapiens, UniProt P04626); assay: Ligand binding studies by BIAcore surface plasmon resonance (SPR); details: 25° C.; immobilized hErbB2; BioRad ProteOn XPR36
Protocol: The kinetic binding of the PBRM-polymer-drug conjugate to an immobilized receptor is determined by BIAcore SPR. The binding constants for the PBRM in the PBRM-polymer-drug conjugate and PBRM alone can be determined using standard BIAcore procedures.
The kinetic binding of the PBRM-polymer-drug conjugate to an immobilized receptor was determined by BIAcore SPR.

NCI-H460 = assay: Cytotoxicity assay (CellTiter-Glo); assay type: cell-based, human; details: HER2 molecules per cell 4,000; Her2 expression 1+; 72 hours or 6 days
Protocol: as §4, §2

NCI-H1581 = assay: Cytotoxicity assay (CellTiter-Glo); assay type: cell-based; details: HER2 molecules per cell 13,000; Her2 expression 1+; 72 hours or 6 days
Protocol: as §5, §2

NCI-H2170 = assay: Cytotoxicity assay (CellTiter-Glo); assay type: cell-based; details: HER2 molecules per cell 660,000; Her2 expression 3+; 72 hours or 6 days
Protocol: as §5, §2

MDA-MB-175VII = assay: Cytotoxicity assay (CellTiter-Glo); assay type: cell-based, human; details: read-out: IC50 MDA-MB-175VII; HER2 molecules per cell 51,000; Her2 expression 1+; 72 hours or 6 days
Protocol: as §7, §2

KATOIII = assay: Cytotoxicity assay (CellTiter-Glo); assay type: cell-based, human; details: HER2 molecules per cell 19,000; Her2 expression 1+; 72 hours or 6 days
Protocol: as §4, §2

CAMA-1 = assay: Cytotoxicity assay (CellTiter-Glo); assay type: cell-based, human; details: HER2 molecules per cell 50,000; Her2 expression 1+; 72 hours or 6 days
Protocol: as §7, §2

MDA-MB-453 = assay: Cytotoxicity assay (CellTiter-Glo); assay type: cell-based; details: HER2 molecules per cell 125,000; Her2 expression 2+; 72 hours or 6 days
BT474 [1] = assay: Cytotoxicity assay (CellTiter-Glo); assay type: cell-based, human; details: HER2 molecules per cell 860,000; Her2 expression 3+; 72 hours or 6 days
Protocol: as §3, §2

ZR75-1 = assay: Cytotoxicity assay (CellTiter-Glo); assay type: cell-based, human; details: HER2 molecules per cell 40,000; Her2 expression 1+; 72 hours or 6 days
Protocol: as §1, §2

BT474 [2] = assay: Cell viability assay (Cell Titer-Glo); assay type: cell-based, human; details: 72 h incubation; AF-HPA as toxin equivalents
Protocol: as §6

ado-trastuzumab emtansine [Kadcyla] was tested. Which pIC50 (HCC38) did it give?
Its pIC50 is less than 7.00.

What about the pIC50 (SKOV3) of the same substance?
The pIC50 was 8.25.

What about the pIC50 (TOV21G) of the same substance?
The pIC50 was less than 7.00.

What about the “tumor volume response (in words), FIG. 4A” value (JIMT-1 cells; Example 14 at 2, 0.67 and 0.3 mg/kg, trastuzumab 20 mg/kg, Kadcyla 20 mg/kg) of the same substance?
Its value is “increase of tumor volume”.

And the “tumor volume response (in words), FIG. 2” value (JIMT-1 cells; conjugates […], trastuzumab 10 mg/kg, Kadcyla 10 mg/kg)?
Its value is “increase of tumor volume”.

And the pIC50 (NCI-N87)?
Its pIC50 is 9.52.

What about the pIC50 (SNU5) of the same substance?
Its pIC50 is roughly 7.00.

And the pIC50 (OVCAR3)?
Its pIC50 is roughly 7.07.

What about the pIC50 (NCI-H522) of the same substance?
Its pIC50 is roughly 7.00.

What about the pIC50 (MKN45) of the same substance?
The pIC50 was less than 7.00.

What about the pIC50 (NCI-H2122) of the same substance?
The pIC50 was 7.72.

And the pIC50 (HCC1187)?
Its pIC50 is 7.52.

What about the pIC50 (T47D) of the same substance?
The pIC50 was 7.08.

What about the pIC50 (A549) of the same substance?
The pIC50 was less than 7.00.

What about the pIC50 (JIMT1) of the same substance?
Its pIC50 is 7.74.

And the pIC50 (JIMT-1)?
Its pIC50 is 7.76.

What about the pIC50 (N87) of the same substance?
Its pIC50 is 10.05.

What about the pIC50 (SKBR3) of the same substance?
The pIC50 was 9.64.

And the pIC50 (CALU3)?
Its pIC50 is less than 7.00.

And the pIC50 (MDA-MB-231)?
Its pIC50 is 7.57.

And the pIC50 (MDA-MB-361)?
The pIC50 was 9.57 and 9.48.

What about the pIC50 (SHP-77) of the same substance?
Its pIC50 is less than 7.00.

And the pIC50 (MCF7)?
Its pIC50 is 7.41.

What about the “ka (association or affinity rate constant)” value (hErbB2) of the same substance?
Its value is 4.61 ± 0.2 × 10^5 M^−1s^−1.

What about the “kd (dissociation rate constant)” value (hErbB2) of the same substance?
Its value is 3.17 ± 0.9 × 10^−5 s^−1.

And the pIC50 (NCI-H460)?
The pIC50 was 7.17.

What about the pIC50 (NCI-H1581) of the same substance?
Its pIC50 is roughly 7.00.

What about the pIC50 (NCI-H2170) of the same substance?
Its pIC50 is 9.40.

What about the pIC50 (MDA-MB-175VII) of the same substance?
The pIC50 was 8.92.

And the pIC50 (KATOIII)?
The pIC50 was less than 7.00.

What about the pIC50 (CAMA-1) of the same substance?
Its pIC50 is 8.11.

And the pIC50 (MDA-MB-453)?
Its pIC50 is roughly 7.00.

And the pIC50 (BT474 [1])?
The pIC50 was 8.89.

What about the pIC50 (ZR75-1) of the same substance?
The pIC50 was less than 7.00.

What about the pIC50 (BT474 [2]) of the same substance?
Its pIC50 is 8.62.
